In paper PMC12340070, “A novel modulator of IL-6R prevents inflammation-induced preterm birth and improves newborn outcome” (EMBO Molecular Medicine, 2025):
“Also recorded” adds a separate entry of the source. Each block holds one compound with its values, some of them ahead of it. Where a SMILES comes first, the peptide text is derived from it. Where no end group is shown, it is not given here. [ ]: non-standard residue; d: D form.

Columns and labels:
placenta = assay: HSJ633 biodistribution in placenta (fluorescence); assay type: in vivo, mouse; conditions: 1 mg/kg s.c., LPS 10 μg i.p., GD17, 4 h, pregnant mice; 11–12 samples per group
Procedure: Mice were euthanized after 4 h to analyze tissue distribution of the fluorescent-tagged compounds. Placentas were collected and fixed in 4% paraformaldehyde for 1 day and transferred into 30% sucrose for another day. Placental cryosections were stained with DAPI (0.0002 mg/mL) for nuclei. Images were captured using a ×20 objective with a Zeiss AxioScan.Z1. Fluorescence analysis was performed using ImageJ.

[1] = target: T1, IL-6R (HEK-Blue IL-6 cells) (Homo sapiens, UniProt P08887); assay: TNF-α expression in HEK-Blue IL-6 cells (RT-qPCR), peptide screening; assay type: cell-based; conditions: IL-6 3.86 nM 6 h, peptides 1 μM, TCZ 3.44 μM, RT-qPCR normalized to 18S, 2-9 samples per group
T1 construct: host or cells: HEK-Blue IL-6 cells (HEK293-derived, H. sapiens)
Procedure: HEK293 and HEK-blue IL-6 cells were purchased and were used at fewer than 15 passages and tested mycoplasma negative. Cells were cultured in DMEM growth medium supplemented with 10% fetal bovine serum (FBS), 50 U/mL penicillin, and 50 μg/mL streptomycin. HEK-blue IL-6 cell media was also supplemented with HEK-Blue Selection (1:250). Ba/F3-polylinker, Ba/F3-mgp130, and Ba/F3-mgp130-IL-6Rα cells were cultured in RPMI 1640 growth medium supplemented with 10% FBS, 50 U/mL penicillin, and 50 μg/mL streptomycin. These cells were maintained in murine IL-3 at 10 ng/mL and puromycin at 1 μg/mL. Cells were cultured in standard experimental conditions (37 °C, 5% CO2).
For RT-qPCR experiments, cells were plated in 6-well plates at 70% of confluence and starved overnight. […] Samples were stored at −20 °C until analysis by quantitative PCR. […]
Samples (30 mg) of uterus, placenta, fetal membranes, as well as the fetal lung, brain, and intestine, were thawed and deposited in lysis buffer according to the manufacturer’s protocol (Qiagen RNeasy Plus Mini Kit). […] RNA was quantified with a NanoDrop 1000 spectrophotometer and samples (500 ng) were treated with DNAse I (1U). […] Quantitative gene expression analysis was performed on a Light Cycler 96 with iTaq Universal SYBR Green Supermix. […]
Target sequence in this assay (P08887 20-468): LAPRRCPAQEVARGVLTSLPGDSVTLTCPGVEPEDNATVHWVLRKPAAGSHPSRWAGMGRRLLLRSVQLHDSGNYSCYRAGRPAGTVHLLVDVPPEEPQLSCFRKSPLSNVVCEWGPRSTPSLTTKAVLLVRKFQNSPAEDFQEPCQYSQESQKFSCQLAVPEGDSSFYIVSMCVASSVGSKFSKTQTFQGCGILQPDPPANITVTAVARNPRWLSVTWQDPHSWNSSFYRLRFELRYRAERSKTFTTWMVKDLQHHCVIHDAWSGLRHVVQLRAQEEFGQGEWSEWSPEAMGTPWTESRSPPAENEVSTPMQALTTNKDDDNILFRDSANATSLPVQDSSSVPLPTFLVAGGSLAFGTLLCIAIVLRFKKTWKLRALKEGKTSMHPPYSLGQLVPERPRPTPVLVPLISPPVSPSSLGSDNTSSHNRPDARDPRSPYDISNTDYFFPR
Target sequence in this assay (P40189 23-918 partner): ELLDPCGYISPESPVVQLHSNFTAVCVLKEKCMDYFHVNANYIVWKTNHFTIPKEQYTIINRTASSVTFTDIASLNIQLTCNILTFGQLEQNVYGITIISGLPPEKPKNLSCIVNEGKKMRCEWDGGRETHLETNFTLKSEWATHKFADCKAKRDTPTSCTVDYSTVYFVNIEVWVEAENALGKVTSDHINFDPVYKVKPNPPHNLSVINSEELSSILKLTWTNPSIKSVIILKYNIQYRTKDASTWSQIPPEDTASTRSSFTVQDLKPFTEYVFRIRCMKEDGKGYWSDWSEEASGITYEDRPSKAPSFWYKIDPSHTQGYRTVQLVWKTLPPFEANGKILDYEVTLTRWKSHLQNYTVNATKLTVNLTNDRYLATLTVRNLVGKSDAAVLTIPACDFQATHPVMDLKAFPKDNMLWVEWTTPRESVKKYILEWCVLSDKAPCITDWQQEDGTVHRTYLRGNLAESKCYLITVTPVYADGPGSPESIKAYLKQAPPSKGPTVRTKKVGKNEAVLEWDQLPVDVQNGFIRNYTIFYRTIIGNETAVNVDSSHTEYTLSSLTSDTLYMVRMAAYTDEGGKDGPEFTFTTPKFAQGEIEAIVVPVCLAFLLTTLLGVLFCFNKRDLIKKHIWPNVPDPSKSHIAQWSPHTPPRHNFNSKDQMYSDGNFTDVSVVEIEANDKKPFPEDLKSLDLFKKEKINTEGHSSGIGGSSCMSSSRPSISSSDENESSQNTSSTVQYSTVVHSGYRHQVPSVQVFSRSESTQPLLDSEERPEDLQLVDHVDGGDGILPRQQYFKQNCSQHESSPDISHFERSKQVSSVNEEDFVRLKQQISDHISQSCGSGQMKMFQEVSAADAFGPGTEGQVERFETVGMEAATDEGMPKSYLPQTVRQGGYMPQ
Target sequence in this assay (P05231 30-212 partner): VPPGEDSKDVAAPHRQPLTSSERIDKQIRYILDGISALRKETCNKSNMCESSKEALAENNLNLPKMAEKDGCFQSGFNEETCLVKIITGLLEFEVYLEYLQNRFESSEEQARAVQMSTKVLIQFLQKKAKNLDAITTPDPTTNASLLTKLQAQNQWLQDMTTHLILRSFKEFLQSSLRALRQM

[2] = target: T1, IL-6R (HEK-Blue IL-6 cells); assay: [125I]-HSJ633 binding and displacement on HEK-Blue IL-6 cells; conditions: 3–4 samples per group
Procedure: (§1) The Bolton–Hunter reaction was utilized to conjugate the N-hydroxysuccinimide ester of 3-(4-hydroxyphenyl) propionic acid, a tyrosine-like residue, to primary amines as per the manufacturer’s instructions. Briefly, the peptide was dissolved in modification buffer (pH 9.0), then 100 μL of Bolton–Hunter Reagent was added and incubated for 3 h with periodic mixing. After incubating, the solution was dialyzed in PBS using a PlusOne Mini Dialysis Kit. Then 25 μL of peptide, 80 μL of PBS, and 25 μL of I^125 were combined in a precoated tube for 15 min. The reaction was stopped, and C-18 spin columns were used to perform washes and collect the iodine-marked peptide. Radioactivity measurements were made for each batch of radioactive peptides using a Gamma counter (Packard Cobra-II Auto Gamma Counter).
(§2) The HEK-blue IL-6 cells were allowed to acclimatize for two passages to complete the stabilization of the receptor. Prior to experiments, media was changed to adjust for a maximum quantity of 500 μL per well. Subsequently, unlabeled HSJ633 (10^−4 M) was added and allowed to reach equilibrium for 15 min. HEK293 and HEK-Blue IL-6 cells were then treated with the labeled HSJ633 in a quantity equating to 50,000 CPM per well. […] All samples were measured using a Gamma counter (Packard Cobra-II Auto Gamma Counter).

[3] = target: T1, IL-6R (HEK-Blue IL-6 cells); assay: IL-6-induced IL-1β, TNF-α and IL-6 mRNA in HEK-Blue IL-6 cells, dose-response (RT-qPCR); assay type: cell-based
Procedure: For in vitro dose–response experiments, HEK-blue IL-6 cells were allowed to acclimate for two passages to complete the stabilization of the receptor before experiments. Prior to experiments, cells at 70% of confluence were added to six-well plates, then starved overnight before media was changed 30 min prior to beginning the stimulation. After the 30 min pre-incubation, the cells were treated with HSJ633 (from 1 × 10^−12 to 1 × 10^−4 M) allowed to sit for 15 min, treated with 3.86 nM of IL-6, and incubated for 6 h. Cell lysis and mRNA extraction were performed by adding RiboZol. Samples were stored at −20 °C until RNA extraction and quantification (see section below).
For RT-qPCR experiments, cells were plated in 6-well plates at 70% of confluence and starved overnight. Cells were treated respectively with HSJ633, HSJ630, HSJ631, HSJ634, HSJ635, HSJ639 (1 × 10^−6 M), or TCZ (3.44 μM, based on validated doses (Sahraoui et al, [2014])) for TNF-α expression. For hIL-1, hIL-6, and hTNF-α expression, cells were treated with HSJ633 using concentrations ranging from 10^−11 to 10^−4 M, allowing for equilibrium over 15 min. Cells were then treated with […] of IL-6 for 6 h for both experiments. Cell lysis was performed by adding RIBOzol. Samples were stored at −20 °C until analysis by quantitative PCR. To determine the degree of phosphorylation of different proteins (STAT3, ERK, AKT, and p38), HEK-Blue IL-6 cells were treated with HSJ633 (10^−6 M), TCZ (3.44 uM) or vehicle for 30 min in DMEM only. Human IL-6 (3.86 nM) was added to the medium for 15 min to stimulate IL-6R pathways leading to STAT3, ERK, and AKT activation. For p38 activation, 25 min of stimulation with IL-6 was required. The wells were charged with radioimmunoprecipitation assay buffer (RIPA) at a concentration of 1×, cOmplete EDTA-free Protease Inhibitor Cocktail final concentration 1×, and phenylmethanesulfonyl fluoride (PMSF) 1 mM. Samples were shaken for 30 min followed by centrifugation at 12,000 RPM at 4 °C for 20 min to harvest the proteins. Proteins were stored at −80 °C until analysis by immunoblotting.
Samples (30 mg) of uterus, placenta, fetal membranes, as well as the fetal lung, brain, and intestine, were thawed and deposited in lysis buffer according to the manufacturer’s protocol (Qiagen RNeasy Plus Mini Kit). Cell lysis and RNA extraction were performed directly into RiboZol. RNA was extracted from tissue fragments and cells according to the manufacturer’s protocol. RNA was quantified with a NanoDrop 1000 spectrophotometer and samples (500 ng) were treated with DNAse I (1U). RNA was used to synthesize cDNA using iScript reverse transcription superMix. Quantitative gene expression analysis was performed on a Light Cycler 96 with iTaq Universal SYBR Green Supermix. […]
Target sequence in this assay (P08887 20-468): as the sequence (P08887 20-468) above
Target sequence in this assay (P40189 23-918 partner): as the sequence (P40189 23-918 partner) above
Target sequence in this assay (P05231 30-212 partner): as the sequence (P05231 30-212 partner) above

lung parenchyma = conditions: mouse, in vivo
Procedure: To determine the maximal delay of administration of HSJ633, LPS was injected as previously described, and HSJ633 was either administered 2 h or 6 h after the LPS injection at GD16. Dams were consistently observed for delivery until term (G18.5–19.5), and the body weight and survival rate (if 2 or more pups are alive, the litter is considered alive) of the neonates were recorded. The prematurity rate was assessed by determining the number of dams delivering prematurely (gestation length before 18.5 days) out of the total number of dams in the same group. The pups were sacrificed at PT7 for histological analysis.
Histology was performed as described by Habelrih et al (Habelrih et al, [2023]). Images were captured using ×10 objective with a Zeiss AxioScan.Z1.

HEK293 cells = assay: [125I]-HSJ633 binding on HEK293 cells devoid of IL-6R; parameters: species or system human; conditions: [125I]-HSJ633 10^−8 M, 1.5 h; four samples per group
Procedure: as §1, §2

Compound: O=C1OC2(c3ccc(O)cc3Oc3cc(O)ccc32)c2ccc(N=C=S)cc21 [FITC]
placental fluorescence, LPS-treated (placenta): increase in signal intensity in the placenta

TNF-α expression [1]: induced TNF-α expression
Compound: IL-6: human IL-6, Peprotech 200-06, endogenous IL-6R ligand
displacement of [125I]-HSJ633 by IL-6 ([2]; [125I]-HSJ633 10^−8 M, IL-6 10^−4 M): not by non-radioactive IL-6; also recorded: IL-6 does not displace binding of HSJ633

IC50 ([3]; HEK-Blue IL-6, HSJ633 10^−11–10^−4 M, IL-6 3.86 nM 6 h, RT-qPCR normalized to 18S, 3–8 samples per group, read-out: IC50 hIL-1β mRNA): 0.8 nM
IC50 ([3]; HEK-Blue IL-6, HSJ633 10^−11–10^−4 M, IL-6 3.86 nM 6 h, RT-qPCR normalized to 18S, 3–8 samples per group, read-out: IC50 hIL-6 mRNA): 2 nM
IC50 ([3]; HEK-Blue IL-6, HSJ633 10^−11–10^−4 M, IL-6 3.86 nM 6 h, RT-qPCR normalized to 18S, 3–8 samples per group, read-out: IC50 hTNF-a mRNA): 0.2 nM
IC50 ([3]; HEK-Blue IL-6, IL-6 3.86 nM, 6 h, RT-qPCR, average over three cytokines, read-out: average IC50, inhibition of IL-6-induced expression of IL-1β, TNF-α, and IL-6 mRNA): ~1 nM
IC50 ([2]; 1.5 h room temperature, gamma counter, read-out: IC50, displacement of bound [125I]-HSJ633 by cold HSJ633 (% of specific binding)): 12 nM
Compound: CC(C)[C@@H](N)C(=O)N[C@H](CCCNC(=N)N)C(=O)N[C@H](CCCCN)C(=O)N[C@H](Cc1ccccc1)C(=O)N[C@H](CCC(N)=O)C(=O)N[C@H](CC(N)=O)C(=O)N[C@H](CO)C(=O)N1CCC[C@@H]1C(=O)N[C@H](C)C(=O)O [HSJ633] (HELM PEPTIDE1{[dV].[dR].[dK].[dF].[dQ].[dN].[dS].[dP].[dA]}$$$$V2.0)
alveolar density in lung, referee's reading of figure (lung parenchyma): causes loss of alveolar density in the lung

Compound: [^125I]-HSJ633: HSJ633 iodine-labeled after Bolton–Hunter reaction ([dV][dR][dK][dF][dQ][dN][dS][dP][dA]; also: Bolton–Hunter reagent (3-(4-hydroxyphenyl)propionic acid) conjugated to primary amines, iodinated with 125I)
[125I]-HSJ633 binding on HEK293 cells devoid of IL-6R (HEK293 cells): No binding
